Data taken from patent publication US20080269267A1, “KINASE INHIBITORS USEFUL FOR THE TREATMENT OF MYLEOPROLIFIC DISEASES AND OTHER PROLIFERATIVE DISEASES” (Deciphera Pharmaceuticals, LLC, priority 2007, published 2008).

Legend:
[1] = target: T1, C-Met kinase (SEQ ID NO:10) (Homo sapiens, UniProt P08581); assay: C-Met kinase assay (pyruvate kinase/lactate dehydrogenase coupled); conditions: 0.5 h preincubation at 22° C., ATP 100 μM; read-out: c-Met Enzyme Assay, biochemical IC50
T1 construct: purchased Invitrogen PV3143
T1 sequence (P08581 with tags, fused parts or gaps): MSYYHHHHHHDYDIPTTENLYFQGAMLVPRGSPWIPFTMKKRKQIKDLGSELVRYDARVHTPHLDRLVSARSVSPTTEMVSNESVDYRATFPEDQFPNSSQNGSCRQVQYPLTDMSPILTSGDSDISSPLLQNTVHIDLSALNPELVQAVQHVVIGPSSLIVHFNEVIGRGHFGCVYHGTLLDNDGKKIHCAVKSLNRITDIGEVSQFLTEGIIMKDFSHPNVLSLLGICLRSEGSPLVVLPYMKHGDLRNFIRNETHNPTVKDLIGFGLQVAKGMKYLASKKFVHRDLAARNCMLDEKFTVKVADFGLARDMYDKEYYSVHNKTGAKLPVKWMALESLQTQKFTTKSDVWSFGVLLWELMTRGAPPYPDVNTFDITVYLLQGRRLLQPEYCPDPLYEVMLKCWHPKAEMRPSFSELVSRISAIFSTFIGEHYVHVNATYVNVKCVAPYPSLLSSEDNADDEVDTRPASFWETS
Experimental: C-Met Kinase (SEQ ID NO:10) Assay
Activity of C-Met kinase (SEQ ID NO:10) was determined by following the production of ADP from the kinase reaction through coupling with the pyruvate kinase/lactate dehydrogenase system (e.g., Schindler, et al. Science (2000) 289, 1938-1942). In this assay, the oxidation of NADH (thus the decrease at A340 nm) was continuously monitored spectrophometrically. The reaction mixture (100 μl) contained C-Met (c-Met residues; 956-1390, from Invitrogen, catalogue #PV3143, 6 nM), polyE4Y (1 mg/ml), MgCl2 (10 mM), pyruvate kinase (4 units), lactate dehydrogenase (0.7 units), phosphoenol pyruvate (1 mM), and NADH (0.28 mM) in 90 mM Tris buffer containing 0.25 mM DTT, 0.2% octyl-glucoside and 1% DMSO, pH 7.5. Test compounds were incubated with C-Met (SEQ ID NO:10) and other reaction reagents at 22° C. for 0.5 h before ATP (100 μM) was added to start the reaction. The absorption at 340 n=was monitored continuously for 2 hours at 30° C. on Polarstar Optima plate reader (BMG). The reaction rate was calculated using the 1.0 to 2.0 h time frame. Percent inhibition was obtained by comparison of reaction rate with that of a control (i.e. with no test compound). IC50 values were calculated from a series of percent inhibition values determined at a range of inhibitor concentrations using software routines as implemented in the GraphPad Prism software package.

[2] = target: T2, T315I Abl kinase (SEQ ID NO:2) (Homo sapiens, UniProt P00519, T315I); assay: T315I Abl kinase assay (pyruvate kinase/lactate dehydrogenase coupled); conditions: 1 h preincubation at 30° C., ATP 500 μM; read-out: Abl T315l Enzyme Assay, biochemical IC50
T2 construct: purchased deCode Genetics
T2 sequence (P00519 with tags, fused parts or gaps T315I): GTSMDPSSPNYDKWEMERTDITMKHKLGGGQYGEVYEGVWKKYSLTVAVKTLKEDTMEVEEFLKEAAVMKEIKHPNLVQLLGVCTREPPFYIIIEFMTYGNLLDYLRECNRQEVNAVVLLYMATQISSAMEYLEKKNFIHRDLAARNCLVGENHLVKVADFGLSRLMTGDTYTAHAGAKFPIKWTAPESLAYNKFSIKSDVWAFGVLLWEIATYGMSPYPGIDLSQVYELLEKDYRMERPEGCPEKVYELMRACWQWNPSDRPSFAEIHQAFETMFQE
Experimental: Abl Kinase (SEQ ID NO:2) Assay
Activity of T315I Abl kinase (SEQ ID NO:2) was determined by following the production of ADP from the kinase reaction through coupling with the pyruvate kinase/lactate dehydrogenase system (e.g., Schindler, et al. Science (2000) 289, 1938-1942). In this assay, the oxidation of NADH (thus the decrease at A340nm) was continuously monitored spectrophometrically. The reaction mixture (100 μl) contained Abl kinase (4.4 nM. […] Abl from deCode Genetics), peptide substrate (EAIYAAPFAKKK, 0.2 mM), MgCl2 (10 mM), pyruvate kinase (4 units), lactate dehydrogenase (0.7 units), phosphoenol pyruvate (1 mM), and NADH (0.28 mM) in 90 mM Tris buffer containing 0.2% octyl-glucoside and 1% DMSO, pH 7.5. Test compounds were incubated with T315I Abl (SEQ ID NO:2) and other reaction reagents at 30° C. for 1 h before ATP (500 μM) was added to start the reaction. The absorption at 340 nm was monitored continuously for 2 hours at 30° C. on Polarstar Optima plate reader (BMG). The reaction rate was calculated using the 1.0 to 2.0 h time frame. Percent inhibition was obtained by comparison of reaction rate with that of a control (i.e. with no test compound). IC50 values were calculated from a series of percent inhibition values determined at a range of inhibitor concentrations using software routines as implemented in the GraphPad Prism software package.

[3] = target: T3, BaF3 cells transfected with T315I p210 BCR-Abl (Homo sapiens, UniProt P00519, T315I, cells depend on it); assay: Ba/F3 p210 T315I whole cell proliferation assay (Cell Titer Blue, 72 hours); type: cell-based; conditions: 72 hours incubation; read-out: Ba/F3 p210 T315I whole cell proliferation assay, antiproliferation IC50
T3 construct: fused on or other part: P11274 (Breakpoint cluster region protein)
Experimental: BaF3 cells (parental or transfected with the following: wild type p210 BCR-Abl and T315I p210 BCR-Abl was obtained from Professor Richard Van Etten (New England Medical Center, Boston, Mass.). Briefly, cells were grown in RPMI 1640 supplemented with 10% characterized fetal bovine serum (HyClone, Logan, Utah) at 37 degrees Celsius, 5% CO2, 95% humidity. Cells were allowed to expand until reaching 80% saturation at which point they were subcultured or harvested for assay use.
A serial dilution of test compound was dispensed into a 96 well black clear bottom plate (Corning, Corning, N.Y.). For each cell line, three thousand cells were added per well in complete growth medium. Plates were incubated for 72 hours at 37 degrees Celsius, 5% CO2, 95% humidity. At the end of the incubation period Cell Titer Blue (Promega, Madison, Wis.) was added to each well and an additional 4.5 hour incubation at 37 degrees Celsius, 5% CO2, 95% humidity was performed. Plates were then read on a BMG Fluostar Optima (BMG, Durham, N.C.) using an excitation of 544 nm and an emission of 612 nm. Data was analyzed using Prism software (Graphpad, San Diego, Calif.) to calculate IC50's.

IC50 [1]	IC50 [2]	GI50 [3]	SMILES
< 1000 nM	< 100 nM	< 100 nM	CCc1cc(NC(=O)Nc2ccc(Oc3ccnc(-c4cnn(C)c4)c3)cc2F)n(-c2ccc(CO)cc2)n1 [Example 19, 1-(3-ethyl-1-(4-(hydroxymethyl)phenyl)-1H-pyrazol-5-yl)-3-(2-fluoro-4-(2-(1-methyl-1H-pyrazol-4-yl)pyridin-4-yloxy)phenyl)urea]
< 1000 nM	< 100 nM	< 100 nM	CC(C)c1cc(NC(=O)Nc2ccc(Oc3ccnc(-c4cnn(C)c4)c3)cc2F)n(-c2ccc(F)c(C#N)c2)n1 [Example 5, 1-(1-(3-cyano-4-fluorophenyl)-3-isopropyl-1H-pyrazol-5-yl)-3-(2-fluoro-4-(2-(1-methyl-1H-pyrazol-4-yl)pyridin-4-yloxy)phenyl)urea]
< 100 nM	< 100 nM	< 100 nM	CC(C)c1cc(NC(=O)Nc2ccc(Oc3ccnc(-c4cnn(C)c4)c3)cc2F)n(-c2cccc(C#N)c2)n1 [Example 2, 1-(1-(3-cyanophenyl)-3-isopropyl-1H-pyrazol-5-yl)-3-(2-fluoro-4-(2-(1-methyl-1H-pyrazol-4-yl)pyridin-4-yloxy)phenyl)urea]
